Assays:
[1] = Solubility of crystal Forms in pH 6.8 buffer (1 hour equilibration, filtration, HPLC); assay type: physicochemical; details: for Solubility in pH 6.8 buffer: 20 mg in 1 mL, equilibrated for 1 hour, 0.45 μm filter, HPLC; for solubility in pH 6.8 buffer compared to existing crystal Forms: comparison with crystal Forms A and B
Method: The solubility of several new crystal Forms prepared in the above examples and Form A and B (prepared according to the method of WO2014128588A1) in a pH buffer solution (pH 6.8) was determined. 20 mg Form VIII, Form IX, Form XIV, Form A and Form B was precisely weighed and placed in a 2-mL glass vial, 1 mL of pH 6.8 buffer was added, sealed with cap, and mixed on a rotating mixer. After the suspension was equilibrated for 1 hour, the mixture was filtered through a 0.45 μm needle filter, and the concentration of 6-Acetyl-8-cyclopentyl-5-methyl-2-(5-piperazin-1-yl-pyridin-2-ylamino)-8H-pyrido[2,3-d]pyrimidin-7-one in the filtrate was analyzed by HPLC to obtain the solubility of different crystal Forms. The solubility of the polymorphs of 6-Acetyl-8-cyclopentyl-5-methyl-2-(5-piperazin-1-yl-pyridin-2-ylamino)-8H-pyrido[2,3-d]pyrimidin-7-one is shown in the following table: […]

[2] = prior art statement; cited from earlier work
[3] = Dissolution rate in pH 6.8 buffer; assay type: physicochemical; details: comparison with crystal Forms A and B

| Structure (SMILES) | Solubility in pH 6.8 buffer [1] | solubility in water [2] | solubility in pH 6.8 buffer compared to existing crystal Forms [1] | dissolution rate in pH 6.8 buffer compared to existing crystal Forms [3] |
| --- | --- | --- | --- | --- |
| CC(=O)c1c(C)c2cnc(Nc3ccc(N4CCNCC4)cn3)nc2n(C2CCCC2)c1=O [Form A, 6-Acetyl-8-cyclopentyl-5-methyl-2-(5-piperazin-1-yl-pyridin-2-ylamino)-8H-pyrido[2,3-d]pyrimidin-7-one, reference compound] | 0.002 mg/mL | very small | – | – |
| CC(=O)c1c(C)c2cnc(Nc3ccc(N4CCNCC4)cn3)nc2n(C2CCCC2)c1=O [Form XI, 6-Acetyl-8-cyclopentyl-5-methyl-2-(5-piperazin-1-yl-pyridin-2-ylamino)-8H-pyrido[2,3-d]pyrimidin-7-one] | – | – | greater than the existing crystal Forms A and B | greater than the existing crystal Forms A and B |
| CC(=O)c1c(C)c2cnc(Nc3ccc(N4CCNCC4)cn3)nc2n(C2CCCC2)c1=O [Form IX, 6-Acetyl-8-cyclopentyl-5-methyl-2-(5-piperazin-1-yl-pyridin-2-ylamino)-8H-pyrido[2,3-d]pyrimidin-7-one] | 0.015 mg/mL | – | – | – |

More lines, main results first:

| Solubility in pH 6.8 buffer [1] | Structure (SMILES) | solubility in water [2] | solubility in pH 6.8 buffer compared to existing crystal Forms [1] | dissolution rate in pH 6.8 buffer compared to existing crystal Forms [3] |
| --- | --- | --- | --- | --- |
| 0.010 mg/mL | CC(=O)c1c(C)c2cnc(Nc3ccc(N4CCNCC4)cn3)nc2n(C2CCCC2)c1=O [Form VIII, 6-Acetyl-8-cyclopentyl-5-methyl-2-(5-piperazin-1-yl-pyridin-2-ylamino)-8H-pyrido[2,3-d]pyrimidin-7-one] | – | greater than the existing crystal Forms A and B | greater than the existing crystal Forms A and B |
| 0.012 mg/mL | CC(=O)c1c(C)c2cnc(Nc3ccc(N4CCNCC4)cn3)nc2n(C2CCCC2)c1=O [Form XIV, 6-Acetyl-8-cyclopentyl-5-methyl-2-(5-piperazin-1-yl-pyridin-2-ylamino)-8H-pyrido[2,3-d]pyrimidin-7-one] | – | greater than the existing crystal Forms A and B | greater than the existing crystal Forms A and B |
| 0.003 mg/mL | CC(=O)c1c(C)c2cnc(Nc3ccc(N4CCNCC4)cn3)nc2n(C2CCCC2)c1=O [Form B, 6-Acetyl-8-cyclopentyl-5-methyl-2-(5-piperazin-1-yl-pyridin-2-ylamino)-8H-pyrido[2,3-d]pyrimidin-7-one, reference compound] | very small | – | – |

Reference: patent US10544142B2, “Crystal forms of palbociclib, and preparation method and use therefor” (SHANGHAI BEGREAT PHARMATECH, priority 2016, dated 2020)
